The source of these data is patent US7189701B1, “Tetrapeptide stimulating functional activity of neurons pharmacological agent based thereon and method of use thereof” (Sankt-Petersburgskaya Obschestvennaya Organizatsiya …, priority 1999, dated 2007).

The test system of data set [1] is mice with compressed fibular nerve. The data set is described as follows: Regeneration of the compressed peripheral (fibular) nerve, electrophysiological tests. The class given is in vivo. Particulars: 10 μg/kg i.p. daily for 8 days. The method, then: The study was accomplished on 22 white unbred male mice weighing 25 to 30 g (7 experimental and 15 control animals).
At the 1st stage of the study, the mice were chronically operated on to compress the fibular nerve. The fibular nerve (n. peroneus communus) in the Nembutal-narcotised mice (60 mg/kg, intraperitoneally) was compressed at a distance of 8 to 9 mm from the innervated muscle—long digital extensor (m. extensor digitorum longus—EDL). The animals were operated on the left hind leg, whilst the corresponding nerve and muscle of the right leg were intact and used further as an intact control.
Afterwards, since the 3rd day after the nerve compression, the mice were intraperitoneally injected with L-Ala-L-Glu-L-Asp-L-Pro tetrapeptide in dose 10 μg/kg, daily for 8 days. The control mice were treated with an equivalent amount of saline.
On the 11th day after the nerve compression surgery (and within 24 hours after the last tetrapeptide injection), the Nembutal-narcotised mice (60 mg/kg) were subject in vivo to electrophysiological tests for different functional parameters of the already germinated nerve and reinnervated skeletal muscular fibres (EDL).

Data set [2] relates to white unbred rats. The data set can be described thus: Subacute toxicity, 90 days intramuscular. The class given is in vivo. Particulars: intramuscular daily for 90 days, 1 μg/kg, 0.3 mg/kg, 3 mg/kg. The method, then: Subacute toxicity of L-Ala-L-Glu-L-Asp-L-Pro (SEQ ID NO:1) tetrapeptide was studied on 60 white unbred rats weighing 150 to 250 g. The experimental animals were administered the preparation intramuscularly once a day, daily for 90 days in doses 1 μg/kg, 0.3 mg/kg, 3 mg/kg in 0.5 ml of saline. The control animals were administered the similar amount of saline.
Within the entire period of study the animals were under daily supervision. Animals' behaviour, food and water consumption, the state of their hair integument and mucous membranes were registered. The animals were weighed once a week. Prior to and on the 30th, 60th and 90th days of the drug administration, the morphologic composition and properties of the peripheral blood in the animals were examined. Upon the study completion, biochemical and coagulologic blood indices were explored.

Residues, ends and D or L forms follow the SMILES beside them.

In the case of `C[C@H](N)C(=O)N[C@@H](CCC(=O)O)C(=O)N[C@@H](CC(=O)O)C(=O)N1CCC[C@H]1C(=O)O` [L-Ala-L-Glu-L-Asp-L-Pro tetrapeptide, L-Alanyl-L-Glutamyl-L-Aspartyl-L-Proline] (H-AEDP-OH), the “improvement of the electric threshold of the regenerating nerve” value in data set [1] (11th day after nerve compression) is given as 30–50%. Also, the “acetyl choline muscular contraction rate” value in data set [1] (FIG. 3) is given as “tendency to diminish”. The entries for the “shortening of the latent M-response period” value in data set [1] (intact neuromuscular system) and in data set [1] (regenerating nerve (and the muscle)) were 89% and 59%, respectively. In addition, the “side effects, subacute toxicity” value in data set [2] is on record as “absence of any side effects”.
